The results in this text go back to US20050020544A1, “Bicyclic CB2 cannabinoid receptor ligands” (priority 2002, published 2005).

One test has as its target T1, human CB1 receptor (Homo sapiens, UniProt P21554).
T1 construct: purchased Perkin Elmer/NEN; host or cells: HEK-293 cells, stably transfected (membranes)
The test is described as follows: biochemical. It is filed as binding. The following applies: displacement of [3H]CP55940, hCB1 HEK-293 membranes; read-out: CB1 IC50. The method, then:
(§1) In the present invention, binding affinity is represented by the IC50 value, namely the concentration of a test compound that will displace 50% of a radiolabeled agonist from the CB receptors. […] Preferably these ratios will be obtained for human CB1 and CB2 receptors. The selectivity toward CB2, denoted CB2/CB1 affinity, is calculated as the IC50 value obtained by the test compound for the displacement of the CB1 specific radioligand divided by the IC50 value obtained for the displacement of the CB2 specific radioligand, i.e. the IC50 CB1/IC50 CB2.
The CB1 binding assays were performed by testing the ability of the new compounds to displace [^3H]CP55940 from the CB1 receptor on membranes derived from hCB1 stably transfected HEK-293 cells (Perkin Elmer/NEN). Membranes were diluted in the assay buffer (50 mM Tris-HCl, 2.5 mM EDTA, 5 mM MgCl2, 1 mg/ml BSA, pH=7.4) to 500 μg protein/ml. 50 μl of diluted membranes (25 μg) were incubated with [^3H]CP55940 in the presence or absence of the bicyclic test compounds in a total volume of 0.5 ml. Tested compounds were dissolved in DMSO and diluted in the assay buffer to a final concentration of 0.1% solvent. Control samples were added with identical amount of vehicle. Non-specific binding was measured by the addition of 10 μM of WIN 55212-2. Following 1.5 hours incubation at 30° C. reactions were filtered through Whatman 934A/H filters (presoaked with 0.1% Polyethylenimine (PEI)).
(§2) Binding to CB1 is measured by competitive inhibition of [^3H]CP55940 in HEK-293 cells stably transfected with the human CB1 receptor gene. Binding to CB2 is measured by competitive inhibition of [^3H]WIN55212-2 in CHO cells stably transfected with the human CB2 receptor gene.
In general terms: Loss of bound radioactivity is the signal in a displacement assay; it reports binding, not function.

The subject of test [1] is IL-1β secretion from activated RAW 264.7 macrophages. The test is described as follows: Inhibition of IL-1β in LPS activated macrophages (ELISA). It is filed as cell-based. The conditions noted are these: Mus musculus, RAW264.7, 24 h, read-out: inhibition of IL-1β secretion. The method, then:
The technique used to quantify the amount of a given protein in a liquid sample, either tissue culture supernatant or body fluid, is based on Enzyme Linked ImmunoSorbent Assay (ELISA) methodology. Either commercially available or established in house, the assay is based on the capture of the protein of interest by specific antibodies bound to the bottom of an ELISA plate well. […] Again the unbound material is washed away, the samples are then incubated with the appropriate substrate yielding a calorimetric reaction. The reaction is stopped and reading is performed in a spectrophotometer at the appropriate wavelength. Samples are tested at least in duplicate and the appropriate standard curve, consisting of serial dilutions of the recombinant target protein, is incorporated on each plate. Concentration of the protein in the sample is calculated from the standard curve.
(§3) RAW 264.7 macrophages, a mouse cell line (ATCC # TIB-71), were grown in Dulbecco's modified Eagle's medium (DMEM) with 4 mM L-glutamine adjusted to contain 1.5 g/L sodium bicarbonate, 4.5 g/L glucose, and 10% heat inactivated fetal bovine serum. Cells were grown in tissue culture flasks and seeded at appropriate density into 24 wells tissue culture plates. 0.5×10^6 Raw cells in one milliliter were stimulated with 2 μg/ml Lipopolysaccharide E. coli 055:B5 (DIFCO Laboratories). The mouse macrophages were pre-treated for one hour with controls or 10 μM of bicyclic CB2 ligands and later on activated with LPS. Dexamethasone was used as a positive control at 50 nM. Supernatant was collected 4 hours (for PGE2) and 24 hours (for IL-1β and TNF-α) after activation, and the levels of the inflammatory agent under study were determined by ELISA, as previously described. Inhibition was calculated versus vehicle treated cells.

The next test deals with human CB2 receptor (Homo sapiens, UniProt P34972). The test is described as follows: biochemical. The class given is binding. On the set-up: purchased Perkin Elmer/NEN; host or cells: CHO cells, stably transfected (membranes). The following applies: for CB2/CB1 affinity ratio: IC50 CB1/IC50 CB2; for IC50: displacement of [3H]WIN 55212-2, hCB2 CHO membranes. The method, then: as §1
Chain of human CB2 receptor (P34972 whole entry): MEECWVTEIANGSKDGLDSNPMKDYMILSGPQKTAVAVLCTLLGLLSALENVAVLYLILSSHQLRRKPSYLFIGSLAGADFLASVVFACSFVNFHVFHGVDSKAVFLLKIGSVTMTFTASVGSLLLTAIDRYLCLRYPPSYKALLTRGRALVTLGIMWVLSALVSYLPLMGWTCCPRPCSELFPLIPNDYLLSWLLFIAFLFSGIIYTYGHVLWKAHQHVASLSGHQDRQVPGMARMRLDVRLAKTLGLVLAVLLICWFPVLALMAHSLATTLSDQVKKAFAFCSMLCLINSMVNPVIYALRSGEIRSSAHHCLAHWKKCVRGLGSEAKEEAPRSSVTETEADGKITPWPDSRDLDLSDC
The affinities of the novel bicyclic analogs to the CB2 receptor were determined by their ability to displace [^3H]WIN 55212-2 from the receptor in membranes derived from hCB2 stably transfected CHO cells (Perkin Elmer/NEN). Membranes were diluted in assay buffer (10 mM HEPES, 1 mM MgCl2, 1 mM EDTA, 0.3 mg/ml BSA, pH=7.4) to 500 μg protein/ml. 50 μl of diluted membranes (25 μg) were incubated with 0.8 nM of [^3H]WIN 55212-2 in the presence or absence of several concentrations of the bicyclic test compounds in a total volume of 1 ml. Tested compounds were dissolved and diluted as previously described for the hCB1 assay. Non-specific binding was measured by the addition of 10 μM CP 55940. Following 40 minutes incubation at 30° C. reactions were filtered as previously described. Filters for all binding assays were counted in a β-counter and log of analog concentration versus % of binding was plotted. IC50 values were extrapolated from this plot.
as §2

The subject of another test is Lewis rats. It is filed as in vivo, rat. The following applies: 30 mg/kg i.v., 5 times before the disease onset. The method, then:
Various animal models of autoimmune encephalomyelitis are known in the art, depending on the method of induction, the strain of the animal and the antigen employed to induce the disease. The impact of bicyclic CB2 ligands was tested in EAE using Lewis rats in which the onset of disease is observed by the appearance of clinical symptoms about 10 days after induction. The disease progress and the clinical score increase and peak around day 15 and spontaneous recovery is observed around day 18 after induction of the disease. The animals (at least 9 per test group at initiation of study, except for the untreated control group that comprised only 5 rats) were maintained on a 12 hours light/12 hours dark regimen, at a constant temperature of 22° C., with food and water ad libitum. EAE was induced in these animals by immunization with s.c. injection to the hind paws of 25 μg of purified guinea pig myelin basic protein (MBP, Sigma) emulsified in 0.1 ml of Complete Freund's Adjuvant (Difco).
Methylprednisolone was used as positive control and it was administered daily for 5 consecutive days i.v. at 30 mg/kg starting from day of disease induction by MBP injection. The results are recorded as clinical score; score of 0 indicates a normal animal with no clinical signs, 0.5 indicates a loss of tonicity in the tail's distal part, 1 indicates whole tail paralysis, 2 indicates paraplegia, 3 indicates quadriplegia, 4 indicates complete body paralysis and moribund state and 5 indicates death. The clinical score of the animals is recorded for 11 days following onset of disease and the area under the curve (AUC) is calculated over this period of time.
Moreover, in a separate study animals were euthanized 15 days after induction of the disease by i.p. injection of 100 mg/kg pentobarbital. Brains and spinal cord were removed and were fixed by overnight incubation with 4% Paraformaldehyde. The cervical segment of the spinal cord was dehydrated using ethanol solutions of increasing concentration and then embedded in paraplast. The spinal cord was then sectioned (10 μm) and staining was performed using hematoxylin and eosin. The stained slides were examined under light microscopy for foci of infiltrating lymphocytes. Number of foci were counted and averaged in 6 sections for each animal. Three groups of at least 4 animals each were tested in this system: untreated, vehicle treated, and animals treated with 0.5 mg/kg of compound A. Results are expressed as average±SD of number of foci.

Test [2] relates to TNF-α secretion from activated RAW 264.7 macrophages. The test is described as follows: Inhibition of TNF-α in LPS activated macrophages (ELISA). The class given is cell-based, mouse. The following applies: doses up to 20 μM.
Description: (§4) The technique used to quantify the amount of a given protein in a liquid sample, either tissue culture supernatant or body fluid, is based on Enzyme Linked ImmunoSorbent Assay (ELISA) methodology. Either commercially available or established in house, the assay is based on the capture of the protein of interest by specific antibodies bound to the bottom of an ELISA plate well. Unbound material is washed away, the captured protein is then exposed to a secondary antibody generally labeled with horseradish peroxidase (HRP) or alkaline phosphatase (ALP). Again the unbound material is washed away, the samples are then incubated with the appropriate substrate yielding a calorimetric reaction. The reaction is stopped and reading is performed in a spectrophotometer at the appropriate wavelength. Samples are tested at least in duplicate and the appropriate standard curve, consisting of serial dilutions of the recombinant target protein, is incorporated on each plate. Concentration of the protein in the sample is calculated from the standard curve.
as §3
The activation of the macrophages is performed as previously described. The levels of TNF-α are measured in an ELISA assay as previously described. Inhibition is calculated versus vehicle treated cells.

The subject of test [3] is PGE2 secretion from activated RAW 264.7 macrophages. The test is described as follows: Inhibition of PGE2 in LPS activated macrophages (ELISA). It is filed as cell-based, mouse. The following applies: Mus musculus, RAW264.7; 4 hours after activation, doses 1 μM to 20 μM.
Description: as §4, §3
The activation of the macrophages is performed as previously described. The levels of PGE2 are measured in an ELISA assay as previously described. Inhibition is calculated versus vehicle treated cells. […] Results are depicted in FIG. 2B.
(In general: In an ELISA, binding on a coated surface is turned into a signal by an enzyme label.)

In another test the test system is ICR male mice. The test is described as follows: Tail flick model for acute peripheral pain, i.p. The class given is in vivo, mouse. The conditions noted are these: 10 mg/kg i.p., 330 minutes (five and a half hours). As to the method: ICR male mice (20-30 g average body weight, Harlan, Israel) were injected i.p. at the volume dose of 5 ml/kg. Each treatment group contained at least 6 animals. Morphine HCl was used as positive control at the final dose of 5 mg/kg. Its vehicle, saline, was also included as control. The test compounds were dissolved in CREMOPHOR EL®:ethanol and diluted 1:20 in saline prior to injection, this second type of vehicle was also included as negative control. The final dose injected varied from 0.1 to 10 mg/kg. At predetermined time points after treatment injection, the animals were placed in the tail flick system (Socrel, model DS 20). Animals were gently held while their tails were located above the photoelectric cell. The tails were then illuminated (21V) at 2 cm from the distal tip and the latency time, measured in seconds, was recorded in duplicates. At the end of the study, the animals were euthanized by i.p. injection of 100 mg/kg sodium pentobarbitone.
Two parameters were used to analyze the results, the latency time and the % of animals showing analgesia. […] The results in both cases are expressed as mean±SE. The differences between the latency times or the % of animals showing analgesia among various treatment groups was analyzed by analysis of variance (ANOVA) followed by post-hoc Tukey's test (for latency) or Fisher's exact test (for % animals). A value of p<0.05 is considered to be statistically significant.

For a further test, the system named is Male Sprague Dawley rats. The test is described as follows: Inflammatory pain: carrageenan paw edema in rats, thermal and mechanical stimuli. The following applies: 10 mg/kg i.p., three hours. It is filed as in vivo, rat. As to the method:
Male Sprague Dawley rats (200 g average body weight, Harlan, Israel) are transiently sedated by placement on dry ice for the duration of the injections. […] Before induction of inflammatory pain and three hours after injection, the animals reactions to pain stimuli were tested in two systems. The first stimulus was thermal and assessed by the Plantar Test according to Hargreaves, using Ugo Basile Model 7370. The scale was set to an intensity of 50 arbitrary units. The latency time till the animal lift a paw as a reaction to the thermal stimulus was recorded for both the inflamed and non-inflamed hind paws. The second stimulus was mechanical (tactile) and assessed using a Dynamic Plantar Sesthesiomether (Ugo Basile Model 73400-002).
The results are measured as the differences between the two hind paws at time 0 and 3 hours both as ALT, for the latency time in the thermal part of the study, and as ΔForce, for the mechanical part of the study.
A general note: Carrageenan injected into the paw causes an acute inflammation.

Each structure is given as a SMILES string.

T1 sequence (P21554 whole entry): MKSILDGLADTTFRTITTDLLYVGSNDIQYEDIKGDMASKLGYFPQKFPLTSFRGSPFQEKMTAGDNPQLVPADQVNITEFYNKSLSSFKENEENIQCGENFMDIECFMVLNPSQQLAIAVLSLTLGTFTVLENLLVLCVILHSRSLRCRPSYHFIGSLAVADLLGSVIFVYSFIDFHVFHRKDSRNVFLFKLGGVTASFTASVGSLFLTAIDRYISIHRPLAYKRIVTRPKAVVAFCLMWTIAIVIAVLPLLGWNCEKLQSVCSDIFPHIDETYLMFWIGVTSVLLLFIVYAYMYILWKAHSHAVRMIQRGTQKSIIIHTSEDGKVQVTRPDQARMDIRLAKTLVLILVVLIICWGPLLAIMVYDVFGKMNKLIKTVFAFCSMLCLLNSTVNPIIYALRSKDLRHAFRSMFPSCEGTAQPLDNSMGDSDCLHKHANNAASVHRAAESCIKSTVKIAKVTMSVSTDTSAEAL

As to `CCCCCCC(C)(C)c1cc(O)c([C@H]2C/C(=N/O)[C@H]3C[C@@H]2C3(C)C)c(O)c1` [Compound D], at human CB1 receptor, the half-inhibitory concentration (IC50) – broadly, the concentration at which inhibition is half-maximal – was found to be 93 nM. The inhibition – broadly, how much of the control response was suppressed – at 10 µM in test [1] was determined as 67%. On human CB2 receptor, the CB2/CB1 affinity ratio is on record as 27 and the IC50 is 3.4 nM.
The like results for `CCCCCCC(C)(C)c1cc(OC)c(C2CC(=O)C3CC2C3(C)C)c(OC)c1` (single isomer, unassigned; (-)) [Compound B, (−)-4-[4-(1,1-Dimethyl-heptyl)-2,6-dimethoxy-phenyl]-6,6-dimethyl-bicyclo[3.1.1]heptan-2-one] were, in that order, 2800 nM, 34%, 62 and 45 nM.
As for `C[C@H]1C[C@@H]2[C@H]([C@@H](O)C[C@@]3(C)[C@H]2CC[C@]3(O)C(=O)CO)[C@@]2(C)C=CC(=O)C=C12` [Methylprednisolone, reference compound], the “reduction in the AUC of the clinical score” value in the test on Lewis rats was found to be 34%.
`CC(C)(CCCCBr)c1cc(O)c(C2CC(=O)C3CC2C3(C)C)c(O)c1` (single isomer, unassigned; (-)) [Compound N, (−)-4-[4-(5-Bromo-1,1-Dimethyl-pentyl)-2,6-dihydroxy-phenyl]-6,6-dimethyl-bicyclo[3.1.1]heptan-2-one]: the IC50 at human CB1 receptor was 50 nM. The “effect on TNF-α secretion” value in test [2] is on record as “none of them did significantly affect TNF-α secretion”. Inhibition in test [3] was half-maximal at 7000 nM (IC50). Further, in the test with ICR male mice, the “% animals showing increased analgesia” value is “about 60%” and the latency time was found to be 5.4 s. In the test on Male Sprague Dawley rats, the “ΔForce (tactile stimulus)” value turned out to be 6 g and the “ΔLT (thermal stimulus)” value worked out at 2 s. Moreover, on human CB2 receptor, the CB2/CB1 affinity ratio came out at 139 and the IC50 was 0.36 nM.
Take `CC(C)(CCCCC#N)c1cc(O)c([C@H]2CC(=O)[C@H]3C[C@@H]2C3(C)C)c(O)c1` [Compound P, (−)-4-[4-(1,1-Dimethyl-pentyl-5-nitrile)-2,6-dihydroxy-phenyl]-6,6-dimethyl-bicyclo[3.1.1]heptan-2-one]: the IC50 on human CB1 receptor came to 227 nM; in test [3], 18000 nM; at human CB2 receptor, 1.55 nM. Further, the “effect on TNF-α secretion” value in test [2] is recorded as “none of them did significantly affect TNF-α secretion”. For the same molecule, the CB2/CB1 affinity ratio at human CB2 receptor is 146.
